In patent publication US20230263822A1, “MODULATION OF FACTOR 11 EXPRESSION” (Ionis Pharmaceuticals, Inc., priority 2008, published 2023):
Strand notation (5' to 3'): a small letter for the sugar, then the base; units joined by * are phosphorothioate-linked, units joined directly phosphodiester-linked; [ ] holds rarer units or linkages, { } end groups; capitals alone tell only the bases. e = 2'-O-(2-methoxyethyl) (MOE); [5mC] = 5-methylcytosine; d = 2'-deoxy (DNA)

How the values were obtained:
blood coagulation = experiment: PT and aPTT assay in cynomolgus monkeys (Example 46); assay type: in vivo; conditions: platelet poor plasma, relative to PBS group
Procedure, shortened: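 Male and female monkeys received antisense oligonucleotide subcutaneously at 25 mg/kg, three times weekly in week 1 and twice weekly in weeks 2–8, with PBS as control. PT and aPTT were measured on platelet-poor plasma from blood taken during dosing. Values are ratios to the PBS group raised to the tissue-factor ISI (INR).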

[1] = Hematology assays in cynomolgus monkeys (Example 46); assay type: in vivo
Procedure, shortened: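 Two male and two female monkeys per group received antisense oligonucleotide subcutaneously at 25 mg/kg, three times weekly in week 1 then twice weekly through week 8; PBS controls dosed identically. Blood sampled pre-dose and repeatedly during dosing for PT, aPTT and hematologic factors; necropsy on day 55.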

Substance: ISIS 449711: 3-8-3, 4-8-4, 2-10-2, 3-10-3 or 4-10-4 MOE microwalk gapmer (Table 46) (antisense eA*e[5mC]*dA*dG*dT*dT*dT*d[5mC]*dT*dG*dG*d[5mC]*eA*eG)
- PT ratio (INR) (blood coagulation; Day 10): 0.94
- aPTT ratio relative to PBS group (blood coagulation; Day 10): 0.92
- PT ratio (INR) (blood coagulation; Day 17): 0.95
- aPTT ratio relative to PBS group (blood coagulation; Day 17): 0.90
- PT ratio (INR) (blood coagulation; Day 24): 0.94
- aPTT ratio relative to PBS group (blood coagulation; Day 24): 0.92
- PT ratio (INR) (blood coagulation; Day 31): 0.98
- aPTT ratio relative to PBS group (blood coagulation; Day 31): 0.89
- PT ratio (INR) (blood coagulation; Day 38): 1.02
- aPTT ratio relative to PBS group (blood coagulation; Day 38): 0.93
- PT ratio (INR) (blood coagulation; Day 45): 1.01
- aPTT ratio relative to PBS group (blood coagulation; Day 45): 0.94
- PT ratio (INR) (blood coagulation; Day 52): 1.00
- aPTT ratio relative to PBS group (blood coagulation; Day 52): 0.92
- PT ratio (INR) (blood coagulation; Day 55): 1.07
- aPTT ratio relative to PBS group (blood coagulation; Day 55): 0.96
- PT ratio (INR) (blood coagulation; Day −5): 0.95
- aPTT ratio relative to PBS group (blood coagulation; Day −5): 0.96
- PT ratio (INR) (blood coagulation; Day −14): 1.00
- aPTT ratio relative to PBS group (blood coagulation; Day −14): 0.94
- HCT ([1]; Day 17): 42%
- MCH ([1]; Day 17): 22.2 pg
- MCHC ([1]; Day 17): 29.9 g/dL
- MCV ([1]; Day 17): 75 fL
- RBC count ([1]; Day 17): 5.6e+06 µL⁻¹
- WBC count ([1]; Day 17): 10000 µL⁻¹
- hemoglobin content ([1]; Day 17): 12.5 g/dL
- monocytes ([1]; Day 17): 5.9%
- neutrophils ([1]; Day 17): 52%
- platelet count ([1]; Day 17): 325 ×100/μL
- HCT ([1]; Day 31): 39%
- MCH ([1]; Day 31): 22.1 pg
- MCHC ([1]; Day 31): 29.8 g/dL
- MCV ([1]; Day 31): 73 fL
- RBC count ([1]; Day 31): 5.4e+06 µL⁻¹
- WBC count ([1]; Day 31): 9000 µL⁻¹
- hemoglobin content ([1]; Day 31): 11.8 g/dL
- monocytes ([1]; Day 31): 6.9%
- neutrophils ([1]; Day 31): 58%
- platelet count ([1]; Day 31): 309 ×100/μL
- HCT ([1]; Day 45): 39%
- MCH ([1]; Day 45): 21.7 pg
- MCHC ([1]; Day 45): 29.6 g/dL
- MCV ([1]; Day 45): 73 fL
- RBC count ([1]; Day 45): 5.4e+06 µL⁻¹
- WBC count ([1]; Day 45): 9000 µL⁻¹
- hemoglobin content ([1]; Day 45): 11.5 g/dL
- monocytes ([1]; Day 45): 7.6%
- neutrophils ([1]; Day 45): 45%
- platelet count ([1]; Day 45): 257 ×100/μL
- HCT ([1]; Day 55): 38%
- MCH ([1]; Day 55): 21.3 pg
- MCHC ([1]; Day 55): 29.5 g/dL
- MCV ([1]; Day 55): 73 fL
- RBC count ([1]; Day 55): 5.3e+06 µL⁻¹
- WBC count ([1]; Day 55): 7000 µL⁻¹
- hemoglobin content ([1]; Day 55): 11.3 g/dL
- monocytes ([1]; Day 55): 7.8%
- neutrophils ([1]; Day 55): 70%
- platelet count ([1]; Day 55): 259 ×100/μL
- HCT ([1]; Day-5): 41%
- MCH ([1]; Day-5): 22.7 pg
- MCHC ([1]; Day-5): 30.7 g/dL
- MCV ([1]; Day-5): 74 fL
- RBC count ([1]; Day-5): 5.7e+06 µL⁻¹
- WBC count ([1]; Day-5): 12000 µL⁻¹
- hemoglobin content ([1]; Day-5): 12.7 g/dL
- monocytes ([1]; Day-5): 2.3%
- neutrophils ([1]; Day-5): 71%
- platelet count ([1]; Day-5): 431 ×100/μL
- HCT ([1]; Day-14): 41%
- MCH ([1]; Day-14): 22.6 pg
- MCHC ([1]; Day-14): 31.0 g/dL
- MCV ([1]; Day-14): 73 fL
- RBC count ([1]; Day-14): 5.6e+06 µL⁻¹
- WBC count ([1]; Day-14): 13000 µL⁻¹
- hemoglobin content ([1]; Day-14): 12.7 g/dL
- monocytes ([1]; Day-14): 1.2%
- neutrophils ([1]; Day-14): 64%
- platelet count ([1]; Day-14): 410 ×100/μL

Substance: ISIS 449707: 3-8-3, 4-8-4, 2-10-2, 3-10-3 or 4-10-4 MOE microwalk gapmer (Table 46) (antisense e[5mC]*eA*e[5mC]*eA*dG*dT*dT*dT*d[5mC]*dT*dG*dG*e[5mC]*eA*eG*eG)
- PT ratio (INR) (blood coagulation; Day 10): 0.95
- aPTT ratio relative to PBS group (blood coagulation; Day 10): 0.92
- PT ratio (INR) (blood coagulation; Day 17): 0.97
- aPTT ratio relative to PBS group (blood coagulation; Day 17): 0.94
- PT ratio (INR) (blood coagulation; Day 24): 0.95
- aPTT ratio relative to PBS group (blood coagulation; Day 24): 0.93
- PT ratio (INR) (blood coagulation; Day 31): 0.96
- aPTT ratio relative to PBS group (blood coagulation; Day 31): 0.95
- PT ratio (INR) (blood coagulation; Day 38): 1.00
- aPTT ratio relative to PBS group (blood coagulation; Day 38): 0.99
- PT ratio (INR) (blood coagulation; Day 45): 0.96
- aPTT ratio relative to PBS group (blood coagulation; Day 45): 1.00
- PT ratio (INR) (blood coagulation; Day 52): 0.96
- aPTT ratio relative to PBS group (blood coagulation; Day 52): 0.99
- PT ratio (INR) (blood coagulation; Day 55): 1.00
- aPTT ratio relative to PBS group (blood coagulation; Day 55): 1.04
- PT ratio (INR) (blood coagulation; Day −5): 0.94
- aPTT ratio relative to PBS group (blood coagulation; Day −5): 0.87
- PT ratio (INR) (blood coagulation; Day −14): 1.01
- aPTT ratio relative to PBS group (blood coagulation; Day −14): 0.90
- HCT ([1]; Day 17): 42%
- MCH ([1]; Day 17): 22.1 pg
- MCHC ([1]; Day 17): 30.0 g/dL
- MCV ([1]; Day 17): 74 fL
- RBC count ([1]; Day 17): 5.7e+06 µL⁻¹
- WBC count ([1]; Day 17): 12000 µL⁻¹
- hemoglobin content ([1]; Day 17): 12.7 g/dL
- monocytes ([1]; Day 17): 3.2%
- neutrophils ([1]; Day 17): 80%
- platelet count ([1]; Day 17): 408 ×100/μL
- HCT ([1]; Day 31): 43%
- MCH ([1]; Day 31): 22.1 pg
- MCHC ([1]; Day 31): 29.8 g/dL
- MCV ([1]; Day 31): 74 fL
- RBC count ([1]; Day 31): 5.7e+06 µL⁻¹
- WBC count ([1]; Day 31): 11000 µL⁻¹
- hemoglobin content ([1]; Day 31): 12.7 g/dL
- monocytes ([1]; Day 31): 4.2%
- neutrophils ([1]; Day 31): 89%
- platelet count ([1]; Day 31): 408 ×100/μL
- HCT ([1]; Day 45): 43%
- MCH ([1]; Day 45): 22.6 pg
- MCHC ([1]; Day 45): 29.8 g/dL
- MCV ([1]; Day 45): 73 fL
- RBC count ([1]; Day 45): 5.9e+06 µL⁻¹
- WBC count ([1]; Day 45): 12000 µL⁻¹
- hemoglobin content ([1]; Day 45): 12.9 g/dL
- monocytes ([1]; Day 45): 4.0%
- neutrophils ([1]; Day 45): 89%
- platelet count ([1]; Day 45): 424 ×100/μL
- HCT ([1]; Day 55): 42%
- MCH ([1]; Day 55): 21.9 pg
- MCHC ([1]; Day 55): 30.0 g/dL
- MCV ([1]; Day 55): 73 fL
- RBC count ([1]; Day 55): 5.8e+06 µL⁻¹
- WBC count ([1]; Day 55): 8000 µL⁻¹
- hemoglobin content ([1]; Day 55): 12.6 g/dL
- monocytes ([1]; Day 55): 4.8%
- neutrophils ([1]; Day 55): 98%
- platelet count ([1]; Day 55): 399 ×100/μL
- HCT ([1]; Day-5): 43%
- MCH ([1]; Day-5): 22.2 pg
- MCHC ([1]; Day-5): 29.8 g/dL
- MCV ([1]; Day-5): 75 fL
- RBC count ([1]; Day-5): 5.8e+06 µL⁻¹
- WBC count ([1]; Day-5): 11000 µL⁻¹
- hemoglobin content ([1]; Day-5): 12.8 g/dL
- monocytes ([1]; Day-5): 2.3%
- neutrophils ([1]; Day-5): 106%
- platelet count ([1]; Day-5): 464 ×100/μL
- HCT ([1]; Day-14): 40%
- MCH ([1]; Day-14): 22.2 pg
- MCHC ([1]; Day-14): 31.4 g/dL
- MCV ([1]; Day-14): 71 fL
- RBC count ([1]; Day-14): 5.7e+06 µL⁻¹
- WBC count ([1]; Day-14): 13000 µL⁻¹
- hemoglobin content ([1]; Day-14): 12.7 g/dL
- monocytes ([1]; Day-14): 1.3%
- neutrophils ([1]; Day-14): 85%
- platelet count ([1]; Day-14): 383 ×100/μL
